These results are taken from US6136821A, “Naphthyridine derivatives” (Novartis AG, priority 1996, dated 2000).

One data set deals with human eosinophils. Kind of data set: Inhibition of eosinophil activation by formyl-MetLeuPhe (fMLP); oxidative burst (lucigenin chemiluminescence). In kind it is cell-based. Particulars: fMLP 1 μM, lucigenin 25 μM, purified human eosinophils. How it is done: Anti-inflammatory activity: Inhibition of eosinophil activation by formyl-MetLeuPhe (fMLP)
Purified human eosinophils (10^4 /well in 0.2 ml HBSS) are stimulated with fMLP (1 μM) in the presence of lucigenin (25 μM). Inhibition of the oxidative burst (measured as changes in chemiluminescence) is determined from dose response curves using the logistic equation.

A short description of the next data set: Water solubility. The settings on record: N-methyl-D-glucamine salt. It is filed as physicochemical.

On to `Nc1cc2cccnc2c(-c2cccc3nonc23)n1` [Example 2, 6-amino-8-(4-benzo[c]furazanyl)-1,7-naphthyridine], for which the IC50 with human eosinophils worked out at 6 nM.
Take `CNC[C@H](O)[C@@H](O)[C@H](O)[C@H](O)CO.O=C(O)c1ccc(-c2cc3cccnc3c(-c3cccc4nonc34)n2)cc1` [Example 34, 6-(4-carboxyphenyl)-8-(4-benzo[c]furazanyl)-1,7-napthyridine: salt with N-methyl-D-glucamine]: the water solubility result in “Water solubility” is listed as “water soluble”.
